Source: patent publication US10294202B2, “Pyrrolidinones as herbicides” (FMC Corporation, priority 2013, dated 2019)

How the values were obtained:
crabgrass, large = experiment: Test E preemergence herbicide test; assay type: in vivo, Digitaria sanguinalis; parameters: key: 0 = no effect, 100 = complete control
Text: (§1) Seeds of plant species selected from corn (Zea mays), soybean (Glycine max), velvetleaf (Abutilon theophrasti), lambsquarters (Chenopodium album), wild poinsettia (Euphorbia heterophylla), pigweed, palmer (palmer pigweed, Amaranthus palmeri), waterhemp (common waterhemp, Amaranthus rudis), surinam grass (Brachiaria decumbens), crabgrass, large (large crabgrass, Digitaria sanguinalis), crabgrass, Brazil (Brazilian crabgrass, Digitaria horizontalis), panicum, fall (fall panicum, Panicum dichotomiflorum), foxtail, giant (giant foxtail, Setaria faberii), foxtail, green (green foxtail, Setaria viridis), goosegrass (Eleusine indica), johnsongrass (Sorghum halepense), ragweed (common ragweed, Ambrosia elatior), barnyardgrass (Echinochloa crus-galli), sandbur (southern sandbur, Cenchrus echinatus), arrowleaf […] rhombifolia), ryegrass, Italian (Italian ryegrass, Lolium multiflorum), dayflower, VA (Virginia dayflower, Commelina virginica), field bindweed (Convolvulus arvensis), morningglory (Ipomoea coccinea), nightshade (eastern black nightshade, Solanum ptycanthum), kochia (Kochia scoparia), nutsedge, yellow (yellow nutsedge, Cyperus esculentus), cocklebur (common cocklebur, Xanthium strumarium), smartweed (ladysthumb smartweed, Polygonum Persicaria) and beggarticks (hairy beggarticks, Bidens pilosa), were planted into a silt loam soil and treated preemergence with test chemicals formulated in a non-phytotoxic solvent mixture which included a surfactant. Treated plants and controls were maintained in a greenhouse for 21 days, after which time all species were compared to controls and visually evaluated. Plant response ratings, summarized in Table E, are based on a scale of 0 to 100 where 0 is no effect and 100 is complete control. A dash (-) response means no test result.

pigweed, palmer = experiment: Test E preemergence herbicide test; assay type: in vivo, Amaranthus palmeri; parameters: key: 0 = no effect, 100 = complete control
Text: as §1

goosegrass = experiment: Test E preemergence herbicide test; assay type: in vivo, Eleusine indica; parameters: key: 0 = no effect, 100 = complete control
Text: as §1

velvetleaf = experiment: Test E preemergence herbicide test; assay type: in vivo, Abutilon theophrasti; parameters: key: 0 = no effect, 100 = complete control
Text: as §1

lambsquarters = experiment: Test D pre-/postemergence herbicide test; assay type: in vivo, Chenopodium album; settings: Preemergence; for Plant response rating, Lambsquarters: scale 0 to 100 (0 no effect, 100 complete control); for Plant response rating: 250 g ai/ha, Lambsquarters, scale 0 to 100
How it was run: (§2)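 Visual ratings from 0 (no effect) to 100 (complete control) were made against untreated controls 7 to 21 days after treatment. Application was both preemergence, on silt loam soil, and postemergence, to 1- to 4-leaf plants 2-18 cm tall; compounds were formulated in a non-phytotoxic surfactant-containing solvent.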

buckwheat, wild = experiment: Test D pre-/postemergence herbicide test; assay type: in vivo, Polygonum convolvulus; settings: Preemergence; for Plant response rating, Buckwheat, Wild: scale 0 to 100 (0 no effect, 100 complete control); for Plant response rating: 250 g ai/ha, Buckwheat, Wild, scale 0 to 100
How it was run: as §2

chickweed = experiment: Test D pre-/postemergence herbicide test; assay type: in vivo, Stellaria media; settings: Preemergence; for Plant response rating, Chickweed: scale 0 to 100 (0 no effect, 100 complete control); for Plant response rating: 250 g ai/ha, Chickweed, scale 0 to 100
How it was run: as §2

bromegrass, downy = experiment: Test D pre-/postemergence herbicide test; assay type: in vivo, Bromus tectorum; settings: Preemergence; for Plant response rating, Bromegrass, Downy: scale 0 to 100 (0 no effect, 100 complete control); for Plant response rating: 250 g ai/ha, Bromegrass, Downy, scale 0 to 100
How it was run: as §2

oat, wild = experiment: Test D pre-/postemergence herbicide test; assay type: in vivo, Avena fatua; settings: Preemergence, scale 0 to 100 (0 no effect, 100 complete control)
How it was run: as §2

Compound | Plant response rating, Crabgrass, Large (crabgrass, large; 31 g ai/ha) | Plant response rating, Crabgrass, Large (crabgrass, large; 62 g ai/ha) | Plant response rating, Crabgrass, Large (crabgrass, large; 125 g ai/ha) | Plant response rating, Crabgrass, Large (crabgrass, large; 250 g ai/ha) | Plant response rating, Pigweed, Palmer (pigweed, palmer; 31 g ai/ha) | Plant response rating, Pigweed, Palmer (pigweed, palmer; 62 g ai/ha) | Plant response rating, Pigweed, Palmer (pigweed, palmer; 125 g ai/ha) | Plant response rating, Pigweed, Palmer (pigweed, palmer; 250 g ai/ha) | Plant response rating, Goosegrass (goosegrass; 31 g ai/ha) | Plant response rating, Goosegrass (goosegrass; 62 g ai/ha) | Plant response rating, Goosegrass (goosegrass; 125 g ai/ha) | Plant response rating, Goosegrass (goosegrass; 250 g ai/ha) | Plant response rating, Velvetleaf (velvetleaf; 31 g ai/ha) | Plant response rating, Velvetleaf (velvetleaf; 62 g ai/ha) | Plant response rating, Velvetleaf (velvetleaf; 125 g ai/ha) | Plant response rating, Velvetleaf (velvetleaf; 250 g ai/ha) | Plant response rating, Lambsquarters (lambsquarters; 62 g ai/ha) | Plant response rating, Lambsquarters (lambsquarters; 125 g ai/ha) | Plant response rating, Lambsquarters (lambsquarters; 31 g ai/ha) | Plant response rating (lambsquarters) | other results
O=C1NCC(c2ccc(OC(F)F)cc2)C1C(=O)Nc1cccc(F)c1F (racemic) [Compound 350] | 50 | 70 | 98 | 98 | 0 | 0 | 35 | 35 | 0 | 0 | 0 | 25 | 0 | 0 | 0 | 0 |  |  |  |  | 
O=C1NC[C@H](c2cccc(C(F)(F)F)c2)[C@H]1C(=O)Nc1ccccc1F [Compound 204, (3R,4S)—N-(2-fluorophenyl)-2-oxo-4-[3-(trifluoromethyl)phenyl]-3-pyrrolidinecarboxamide] | 95 | 98 | 98 | 98 | 0 | 0 | 0 | 0 | 0 | 0 | 0 | 0 | 0 | 0 | 0 | 0 | 30 | 65 | 35 | 90 | Plant response rating, Buckwheat, Wild (buckwheat, wild; 62 g ai/ha): 25; Plant response rating, Buckwheat, Wild (buckwheat, wild; 125 g ai/ha): 25; Plant response rating, Buckwheat, Wild (buckwheat, wild; 31 g ai/ha): 20; Plant response rating (buckwheat, wild): 25; Plant response rating, Chickweed (chickweed; 62 g ai/ha): 100; Plant response rating, Chickweed (chickweed; 125 g ai/ha): 100; Plant response rating, Chickweed (chickweed; 31 g ai/ha): 100; Plant response rating (chickweed): 100; Plant response rating, Bromegrass, Downy (bromegrass, downy; 62 g ai/ha): 20; Plant response rating, Bromegrass, Downy (bromegrass, downy; 125 g ai/ha): 35; Plant response rating, Bromegrass, Downy (bromegrass, downy; 31 g ai/ha): 0; Plant response rating (bromegrass, downy): 45; Plant response rating, Oat, Wild (oat, wild; 62 g ai/ha): 25; Plant response rating, Oat, Wild (oat, wild; 125 g ai/ha): 60; Plant response rating, Oat, Wild (oat, wild; 31 g ai/ha): 0; Plant response rating, Oat, Wild (oat, wild; 250 g ai/ha): 40
O=C1NC[C@H](c2cccc(C(F)(F)F)c2)[C@H]1C(=O)Nc1cccc(F)c1F [Compound 206] | 98 | 98 | 98 | 100 | 0 | 0 | 0 | 0 | 0 | 0 | 70 | 90 | 0 | 35 | 30 | 50 | 80 | 85 | 50 | 90 | Plant response rating, Buckwheat, Wild (buckwheat, wild; 62 g ai/ha): 65; Plant response rating, Buckwheat, Wild (buckwheat, wild; 125 g ai/ha): 50; Plant response rating, Buckwheat, Wild (buckwheat, wild; 31 g ai/ha): 45; Plant response rating (buckwheat, wild): 55; Plant response rating, Chickweed (chickweed; 62 g ai/ha): 100; Plant response rating, Chickweed (chickweed; 125 g ai/ha): 70; Plant response rating, Chickweed (chickweed; 31 g ai/ha): 30; Plant response rating (chickweed): 95; Plant response rating, Bromegrass, Downy (bromegrass, downy; 62 g ai/ha): 25; Plant response rating, Bromegrass, Downy (bromegrass, downy; 125 g ai/ha): 55; Plant response rating, Bromegrass, Downy (bromegrass, downy; 31 g ai/ha): 10; Plant response rating (bromegrass, downy): 70; Plant response rating, Oat, Wild (oat, wild; 62 g ai/ha): 35; Plant response rating, Oat, Wild (oat, wild; 125 g ai/ha): 40; Plant response rating, Oat, Wild (oat, wild; 31 g ai/ha): 25; Plant response rating, Oat, Wild (oat, wild; 250 g ai/ha): 55
